The values that follow come from patent US20130039993A1, “ARGON-BASED INHALABLE GASEOUS MEDICAMENT AGAINST PERIPHERAL ORGAN DEFICIENCIES OR FAILURES” (L'Air Liquide, Societe Anonyme pour l'Etude et …, priority 2010, published 2013).

Test [1] concerns kidneys isolated from rats. Briefly: Renal morphology of grafted rat kidneys preserved 6 hours in a gaseous atmosphere (standard histology, histochemistry with anti-active caspase-3 and anti-CD10 antibodies). The settings on record: grafted kidneys preserved 6 hours in 100% by volume gas; for kidneys showing cell lysis with subconfluent coagulation necrosis (standard histology): share of kidneys of the group. In kind it is in vivo, Wistar rats. The source says:
(§1) To do this, kidneys isolated from rats intended for a transplantation were used.
(§2) 120 Wistar rats, weighing between 200 g and 250 g, were used while adhering to the Guide for the Care and Use of Laboratory Animals published by the National Institutes of Health.
(§3) The animals were operated upon under general anesthesia and the left kidneys were removed and then preserved in several gaseous atmospheres, namely: • Group A (according to the invention): argon (100% by volume) • Group B (comparative): xenon (100% by volume) • Group C (1st control): air (i.e. essentially N2/O2 mixture) • Group D (2nd control): nitrogen
(§4) The kidneys of a rat are preserved therein for 6 hours before being grafted onto another anesthetized rat according to the conditions previously described. The rats are kept under observation for 14 days.
(§5) In order to carry out an evaluation of the effectiveness of the protection produced by the various gases tested, the renal function and renal morphology of the grafted kidneys were examined.
The renal morphology was evaluated by standard histology and histochemistry using anti-active caspase-3 and anti-CD10 antibodies.

In test [2] the test system is kidneys isolated from rats. Briefly: Renal function of grafted rat kidneys preserved 6 hours in a gaseous atmosphere (creatinine clearance, 24-hour albuminuria). In kind it is in vivo, Wistar rats. Particulars: days D7 and D14 after graft, kidney preserved 6 hours in 100% by volume gas; for creatinine clearance of the grafted kidneys: estimated, related back to 100 g of weight, FIG. 1.
From the text: as §1, §2, §3, §4, §5
The renal function was evaluated by calculating the creatinine clearance estimated and related back to 100 g of weight, and by measuring the 24-hour albuminuria.

SMILES strings stand for the structures.

Take `[Ar]` [argon]: the “CD10 labeling (histochemistry; preservation of the tubule functional structure)” value in test [1] (anti-CD10 antibody) is “very well preserved”. For the same compound, the “caspase-3 labeling (histochemistry; cell degeneration)” value in test [1] (anti-active caspase-3 antibody) is “discrete and in foci”. The “kidneys showing cell lysis with subconfluent coagulation necrosis (standard histology)” value in test [1] was “no kidney of group A under an argon atmosphere exhibited any sign of cell lysis or necrosis”. For the same compound, the albuminuria entry in test [2] (24-hour albuminuria, FIG. 2) is recorded as “half as much in group A than in the other groups”. Moreover, the “creatinine clearance of the grafted kidneys” value in test [2] is on record as “preserved a good creatinine clearance”.

For the compound `[Xe]` [xenon, reference compound], the “kidneys showing cell lysis with subconfluent coagulation necrosis (standard histology)” value in test [1] is “⅓”. In addition, the “creatinine clearance of the grafted kidneys” value in test [2] was “slightly better with xenon, but significantly lower compared with argon”.
